How the values were obtained:
[1] = 30 μg/rat
in vivo = settings: rat, plasma, 0.03 mg; for AUC(0-inf): Area under the blood level curve (AUC ^.infin.0); for AUC(0-inf) / concentration at 1 min / concentration at 0.05 h / concentration at 10 min / concentration at 20 min / concentration at 0.5 h / concentration at 0.75 h / concentration at 1 h / concentration at […] / concentration at 2 h / concentration at 3 h / concentration at 5 min: 30 μg/rat; for concentration at 1 min / concentration at 0.05 h / concentration at 10 min / concentration at 20 min / concentration at 0.5 h / concentration at 0.75 h / concentration at 1 h / concentration at […] / concentration at 2 h / concentration at 3 h / concentration at 5 min: Plasma Level; for concentration at 0.05 h: 3 min; for concentration at 0.5 h: 30 min; for concentration at 0.75 h: 45 min; for concentration at 1 h: 60 min; for concentration at […]: 90 min; for concentration at 2 h: 120 min; for concentration at 3 h: 180 min
[2] = nasal, individual rats I, II, III
[3] = po, Mean, oral (intraduodenal), mean of 3 rats

With `C=CCN1CC[C@]23c4c5ccc(O)c4O[C@H]2C(=O)CC[C@@]3(O)[C@H]1C5` [naloxone] the “absorption via the nasal route compared with the intravenous route” value ([1]; nasal vs intravenous) was “as effective as via the intravenous route”, the “areas under the curve following intravenous and nasal administration, compared” value ([1]; nasal vs intravenous) was “not significantly different” and the “bioavailability when administered nasally compared with intravenously” value ([1]; nasal vs intravenous) was “equivalent to the bioavailability of the drug when administered intravenously”. For the same compound, the “half-life of elimination after nasal administration compared with intravenous” value ([1]; nasal vs intravenous) was “comparable to its half-life following intravenous nasal administration”, the “bioavailability when administered nasally compared with the oral route” value ([1]; nasal vs oral) was “vastly superior to its bioavailability by the oral route” and the “absorption from the nasal mucosa” value ([1]; nasal) was “very rapidly absorbed from the nasal mucosa”. For the same compound, the “absorption from the nasal mucosa into the systemic circulation; intestinal or first pass metabolism” value ([1]; nasal) was “rapidly absorbed from the nasal mucosa into the systemic circulation without extensive intestinal or first pass metabolism”, the Tmax (in vivo) was about 5 min and the bioavailability (in vivo) was 1.5%. For the same compound, the half-life (in vivo) was 52.1 min, the AUC(0-inf) (in vivo; Mean, nasal, mean of 3 rats) was 25.3 ng·h/mL and the AUC(0-inf) (in vivo; [2]) was 31.7 ng·h/mL. For the same compound, the concentration at 1 min (in vivo; Mean, nasal, mean of 3 rats) was 23.3 ng/mL, the concentration at 0.05 h (in vivo; Mean, nasal, mean of 3 rats) was 38.3 ng/mL and the concentration at 10 min (in vivo; Mean, nasal, mean of 3 rats) was 36 ng/mL. It also gave a concentration at 20 min (in vivo; Mean, nasal, mean of 3 rats) of 19.5 ng/mL, a concentration at 0.5 h (in vivo; Mean, nasal, mean of 3 rats) of 12 ng/mL and a concentration at 0.75 h (in vivo; Mean, nasal, mean of 3 rats) of 7.96 ng/mL. For the same compound, the concentration at 1 h (in vivo; Mean, nasal, mean of 3 rats) was 6.41 ng/mL, the concentration at […] (in vivo; Mean, nasal, mean of 3 rats) was 3.58 ng/mL and the concentration at 2 h (in vivo; Mean, nasal, mean of 3 rats) was 2.59 ng/mL. It also gave a concentration at 3 h (in vivo; Mean, nasal, mean of 3 rats) of 1.42 ng/mL, a concentration at 0.05 h (in vivo; [2]) of 41.2 ng/mL and a concentration at 5 min (in vivo; [2]) of 54.5 ng/mL. For the same compound, the concentration at 10 min (in vivo; [2]) was 45.3 ng/mL, the concentration at 20 min (in vivo; [2]) was 22.7 ng/mL and the concentration at 0.5 h (in vivo; [2]) was 13.5 ng/mL. For the same compound, the concentration at 0.75 h (in vivo; [2]) was 9.36 ng/mL, the concentration at 1 h (in vivo; [2]) was 8.26 ng/mL and the concentration at […] (in vivo; [2]) was 4.79 ng/mL. The concentration at 2 h (in vivo; [2]) was 3.65 ng/mL, the concentration at 3 h (in vivo; [2]) was 1.95 ng/mL and the half-life (in vivo; iv) was 59.2 min. For the same compound, the AUC(0-inf) (in vivo; iv, individual rats I, II, III) was 21.2 ng·h/mL, the AUC(0-inf) (in vivo; iv, Mean, mean of 3 rats) was 25 ng·h/mL and the concentration at 1 min (in vivo; iv, individual rats I, II, III) was 102 ng/mL. It also gave a concentration at 0.05 h (in vivo; iv, individual rats I, II, III) of 52.3 ng/mL, a concentration at 5 min (in vivo; iv, individual rats I, II, III) of 31.4 ng/mL and a concentration at 10 min (in vivo; iv, individual rats I, II, III) of 15.6 ng/mL. It also gave a concentration at 20 min (in vivo; iv, individual rats I, II, III) of 10.3 ng/mL, a concentration at 0.5 h (in vivo; iv, individual rats I, II, III) of 7.28 ng/mL and a concentration at 0.75 h (in vivo; iv, individual rats I, II, III) of 5.47 ng/mL. For the same compound, the concentration at 1 h (in vivo; iv, individual rats I, II, III) was 4.87 ng/mL, the concentration at […] (in vivo; iv, individual rats I, II, III) was 3.01 ng/mL and the concentration at 2 h (in vivo; iv, individual rats I, II, III) was 2.15 ng/mL. The concentration at 3 h (in vivo; iv, individual rats I, II, III) was 1.25 ng/mL, the concentration at 1 min (in vivo; iv, Mean, mean of 3 rats) was 111 ng/mL and the concentration at 0.05 h (in vivo; iv, Mean, mean of 3 rats) was 58 ng/mL. For the same compound, the concentration at 5 min (in vivo; iv, Mean, mean of 3 rats) was 37.5 ng/mL, the concentration at 10 min (in vivo; iv, Mean, mean of 3 rats) was 19.6 ng/mL and the concentration at 20 min (in vivo; iv, Mean, mean of 3 rats) was 11.6 ng/mL. It also gave a concentration at 0.5 h (in vivo; iv, Mean, mean of 3 rats) of 8.34 ng/mL, a concentration at 0.75 h (in vivo; iv, Mean, mean of 3 rats) of 6.74 ng/mL and a concentration at 1 h (in vivo; iv, Mean, mean of 3 rats) of 5.41 ng/mL. For the same compound, the concentration at […] (in vivo; iv, Mean, mean of 3 rats) was 3.96 ng/mL, the concentration at 2 h (in vivo; iv, Mean, mean of 3 rats) was 2.86 ng/mL and the concentration at 3 h (in vivo; iv, Mean, mean of 3 rats) was 1.47 ng/mL. It also gave an AUC(0-inf) (in vivo; [3]) of 0.367 ng·h/mL, a concentration at 5 min (in vivo; [3]) of 0.37 ng/mL and a concentration at 10 min (in vivo; [3]) of 0.34 ng/mL. The concentration at 0.75 h (in vivo; [3]) was 0.11 ng/mL, the concentration at 1 h (in vivo; [3]) was 0.09 ng/mL and the concentration at 2 h (in vivo; [3]) was 0.06 ng/mL.

— patent US4464378A, “Method of administering narcotic antagonists and analgesics and novel dosage forms containing same” (University of Kentucky Research Foundation, priority 1981, dated 1984)
